According to publication PMC8495968, “Towards optimizing peptide-based inhibitors of protein–protein interactions: predictive saturation variation scanning (PreSaVS)” (RSC Chemical Biology, 2021):
Where two headings read alike, the source gives them in different places.

Key:
[1] = Solubility, qualitative test
Procedure: (1 picture or pasted object on this page, not shown here)
(§1) For competition experiments, the anisotropies were determined as for the direct titration and then plotted against inhibitor concentration and fit (equation 5) to determine the IC50 and error […]
(§2) y = rmax + (rmin-rmax)/(1+(x/xo)p) Equation 5
Where xo represents the IC50
Fluorescence anisotropy direct titration assays were performed with protein concentration diluted over 16-24 points using 2-fold dilutions. Followed by addition of tracer peptide was added to the wells. For control wells, the tracer peptide was replaced with an identical volume of assay buffer. Plates were read after 45 minutes.
(§3) Competition binding assays:
(§4) FA competition assays were performed in 384 well plates with the concentration of variant […]
(§5) with fixed protein and tracer concentrations. FITC-labelled peptide was added to each well to […]
The total volume in each well was 60 μL. Plates were read after 45 minutes of incubation at […]
ITC experiments were carried out using a Microcal ITC200i instrument (Malvern) at 25°C in 20 mM Tris, 150 mM NaCl, pH 7.5 buffer. […] Data was analysed using Microcal Origin 8 and fitted to a one-binding site model
Spectra were recorded on a Chirascan circular dichroism spectropolarimeter (Applied Photophysics), at 20°C, using 1 mm cells and a scan speed of 5 nm/min. […]
Peptide solubility was assessed using a qualitative test. […]

hSUMO-1 18-97 = target: T1, hSUMO-1 18-97 (Homo sapiens, UniProt P63165); experiment: Fluorescence anisotropy competition assay, FITC-peg-SIM tracer / SUMO; type: binding; conditions: competition FA, 50 mM Tris, 150 mM NaCl, 25 nM tracer, 100 nM SUMO, read after 45 min, triplicate
T1 construct: 18-97; His-TEV (N, cleaved yes); made in house
Procedure: hSUMO-1 18-97 was expressed and purified as previously described from a pet19b His-TEV-SUMO-1 (18-97) construct with cleavage of the tag using TEV protease.4 […]
Fluorescence anisotropy assays were performed in 384-well plates (Greiner Bio-one). Each experiment was run in triplicate and the fluorescence anisotropy measured using a Perkin Elmer EnVisionTM 2103 MultiLabel plate reader, with excitation at 480 nm (30 nm bandwidth), polarised dichroic mirror at 505 nm and emission at 535 nm (40 nm bandwidth, S and P polarised). All assays were performed in 20 mM Tris, 100 mM NaCl, 0.1 mM DTT, pH 7.5 unless otherwise stated and data analysed following previously published methods.
Fluorescence anisotropy data was processed as described previously.[2] Briefly. the data from both the P (perpendicular intensity) and S (parallel intensity) channels, resulting from this measurement and corrected by subtracting the corresponding control wells, were used to calculate the intensity and anisotropy for each well following Equations 1 and 2: […]
For direct titration the average anisotropy (across three experimental replicates) and the standard deviation of these values were then calculated and fit to a logistic model using OriginPro 9.0 to determine the maximum and minimum anisotropies then the fraction bound calculated (Equation 3) and used to determine Kd (equation 4)
Lb= (r‒rmin)/λ(rmax‒r)+r‒rmin Equation 3
y= {(k+ x+[ FL])‒√{k+x+[FL] 2‒4x[FL]}}/2 Equation 4 r = anisotropy, I = total intensity, P = perpendicular intensity, S = parallel intensity, G = instrument factor which was set to 1 for all experiments, Lb = fraction ligand bound, λ = […]
as §1, §2
Where xo represents the IC50 […]
as §3, §4, §5
For control wells, the tracer peptide was replaced with an identical volume of assay buffer.
The total volume in each well was 60 μL. […]

T1 sequence (P63165 18-97): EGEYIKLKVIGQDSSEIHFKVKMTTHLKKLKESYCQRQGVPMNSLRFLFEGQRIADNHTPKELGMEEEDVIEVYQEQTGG

Structure (SMILES)	maximum solubility / concentration obtained ([1]; qualitative test) [mM]	IC50 (hSUMO-1 18-97) [µM]	maximum solubility / concentration obtained [1]
CC[C@H](C)[C@H](NC(=O)[C@@H](NC(=O)[C@H](CCC(=O)O)NC(=O)[C@H](CC(=O)O)NC(=O)[C@H](CCC(=O)O)NC(=O)[C@H](CC(N)=O)NC(=O)[C@H](CC(=O)O)NC(C)=O)C(C)C)C(=O)N[C@H](C(=O)N[C@H](C(=O)N[C@@H](Cc1c[nH]c2ccccc12)C(=O)N[C@@H](CCC(=O)O)C(=O)N[C@@H](CCCCN)C(=O)N[C@@H](CCCCN)C(N)=O)C(C)C)[C@@H](C)CC [SIM2705–2717I2708D]	> 8	14.8 ± 0.7	–
CC[C@H](C)[C@H](NC(=O)[C@H](CCC(=O)O)NC(=O)[C@H](CC(N)=O)NC(=O)[C@H](CC(=O)O)NC(C)=O)C(=O)N[C@@H](CCC(=O)O)C(=O)N[C@H](C(=O)N[C@H](C(=O)N[C@H](C(=O)N[C@H](C(=O)N[C@@H](Cc1c[nH]c2ccccc12)C(=O)N[C@@H](CCC(=O)O)C(=O)N[C@@H](CCCCN)C(=O)N[C@@H](CCCCN)C(N)=O)C(C)C)[C@@H](C)CC)[C@@H](C)CC)C(C)C [SIM2705–2717]	–	–	~ 1 mM
